From patent US4103082A, “Aminocyclitol derivatives and process for producing the same” (priority 1975, dated 1978)
In brackets after ≈: the same amount, converted by molar mass.

Legend:
[1] = test system: Bacillus subtilis ATCC 6633; assay: paper disk method, inhibitory zone diameter; type: cell-based; conditions: read-out: inhibitory zone diameter
E. coli K-12 = assay: paper disk method, inhibitory zone diameter; type: cell-based; conditions: Escherichia coli, K12, read-out: inhibitory zone diameter
[2] = test system: Staphylococcus aureus 6538P; assay: paper disk method, inhibitory zone diameter; type: cell-based; conditions: read-out: inhibitory zone diameter
[3] = test system: E. coli HL-1629 (Kanamycin-resistant strain); assay: microbe, parasite or virus in culture; type: cell-based; conditions: Escherichia coli, read-out: inhibitory zone diameter
Klebsiella 6 = assay: paper disk method, inhibitory zone diameter; type: cell-based; conditions: Klebsiella, 6
Mycobacterium 607 = assay: paper disk method, inhibitory zone diameter; type: cell-based; conditions: Mycobacterium, 607, read-out: inhibitory zone diameter
Pseudomonas 1007 = assay: paper disk method, inhibitory zone diameter; type: cell-based; conditions: Pseudomonas, 1007; 2000 γ/ml; read-out: inhibitory zone diameter
[4] = test system: Staphylococcus aureus 209P JC-1; assay: antibacterial activity (Minimum Inhibitory Concentration); type: cell-based; conditions: Staphylococcus aureus 209P JC-1; read-out: MIC
[5] = test system: Staphylococcus aureus Smith S-424; assay: as above; type: cell-based; conditions: SMITHS424; Staphylococcus aureus Smith S-424; read-out: MIC
[6] = test system: Staphylococcus aureus No. 26; assay: as above; type: cell-based; conditions: Staphylococcus aureus No. 26; read-out: MIC
[7] = test system: Staphylococcus aureus C73-4; assay: as above; type: cell-based; conditions: C734; Staphylococcus aureus C73-4; read-out: MIC
[8] = test system: Staphylococcus aureus C73-10; assay: as above; type: cell-based; conditions: C7310; Staphylococcus aureus C73-10; read-out: MIC
[9] = test system: Staphylococcus aureus C73-21; assay: as above; type: cell-based; conditions: C7321; Staphylococcus aureus C73-21; read-out: MIC
[10] = test system: Staphylococcus albus PCI-1200A; assay: as above; type: cell-based; conditions: PCI1200A; Staphylococcus albus PCI-1200A; read-out: MIC
[11] = test system: Bacillus subtilis ATCC 6633; assay: as above; type: cell-based; conditions: ATCC6633; Bacillus subtilis ATCC 6633; read-out: MIC
E. coli C73-1 = assay: as above; type: cell-based; conditions: Escherichia coli, C731; E. coli C73-1; read-out: MIC
E. coli C73-4 = assay: as above; type: cell-based; conditions: Escherichia coli, C734; E. coli C73-4; read-out: MIC
E. coli C73-12 = assay: as above; type: cell-based; conditions: Escherichia coli, C7312
[12] = test system: Salmonella species C73-30; assay: as above; type: cell-based; conditions: C7330
[13] = test system: Shigella dysenteriae Shigae; assay: microbe, parasite or virus in culture; type: cell-based
Proteus morganii Kono = assay: antibacterial activity (Minimum Inhibitory Concentration); type: cell-based; conditions: Morganella morganii
Proteus species C73-23 = assay: as above; type: cell-based; conditions: Proteus species C73-23; read-out: MIC
Proteus species C73-25 = assay: as above; type: cell-based; conditions: Proteus species C73-25; read-out: MIC
Proteus species C73-33 = assay: as above; type: cell-based; conditions: Proteus species C73-33; read-out: MIC
Proteus species C73-34 = assay: as above; type: cell-based; conditions: Proteus species C73-34; read-out: MIC
[14] = test system: Enterococcus species C73-33; assay: as above; type: cell-based; conditions: C7333; Enterococcus species C73-33; read-out: MIC
[15] = test system: Enterococcus species C73-17; assay: as above; type: cell-based; conditions: C7317; Enterococcus species C73-17; read-out: MIC
[16] = test system: Vibrio parahaemolyticus K-3; assay: as above; type: cell-based; conditions: K3; Vibrio parahaemolyticus K-3; read-out: MIC
[17] = test system: Vibrio parahaemolyticus K-5; assay: as above; type: cell-based; conditions: K5; Vibrio parahaemolyticus K-5; read-out: MIC
[18] = test system: Vibrio parahaemolyticus K-7; assay: as above; type: cell-based; conditions: K7; Vibrio parahaemolyticus K-7; read-out: MIC
microorganisms indicated = assay: antimicrobial activities, paper disk method (general statement); type: cell-based; conditions: Tables 1 to 4
Procedure: The inhibitory activities were determined at various concentrations of the compounds using the paper disk method against the microorganisms indicated and the numerical values show the inhibitory zone diameter in terms of mm.

male ICR mice = assay: acute toxicity; conditions: intravenous administration, 200 mg/kg

Compound: NC[C@H]1O[C@H](O[C@H]2[C@H](O)C[C@H](N)C[C@@H]2N)[C@H](N)[C@@H](O)[C@@H]1O [6-Deoxyneamine, 6-deoxyneamine]
- zone of inhibition at 7.8 µg/mL ([1]; ATCC6633, 7.8 γ/ml): 15 mm
- zone of inhibition at 15.6 µg/mL ([1]; ATCC6633, 15.6 γ/ml): 17.6 mm
- zone of inhibition at 31.2 µg/mL ([1]; ATCC6633, 31.2 γ/ml): 21.1 mm
- zone of inhibition at 62.5 µg/mL ([1]; ATCC6633, 62.5 γ/ml): 22.7 mm
- zone of inhibition at 125 µg/mL ([1]; ATCC6633, 125 γ/ml): 25.6 mm
- zone of inhibition at 250 µg/mL ([1]; ATCC6633, 250 γ/ml): 28.2 mm
- zone of inhibition at 500 µg/mL ([1]; ATCC6633, 500 γ/ml): 31.2 mm
- zone of inhibition at 1000 µg/mL ([1]; ATCC6633, 1000 γ/ml): 33.2 mm
- zone of inhibition at 2000 µg/mL ([1]; ATCC6633, 2000 γ/ml): 35.7 mm
- zone of inhibition at 7.8 µg/mL (E. coli K-12; 7.8 γ/ml): 0 mm
- zone of inhibition at 15.6 µg/mL (E. coli K-12; 15.6 γ/ml): 11.2 mm
- zone of inhibition at 31.2 µg/mL (E. coli K-12; 31.2 γ/ml): 12.9 mm
- zone of inhibition at 62.5 µg/mL (E. coli K-12; 62.5 γ/ml): 16 mm
- zone of inhibition at 125 µg/mL (E. coli K-12; 125 γ/ml): 18.2 mm
- zone of inhibition at 250 µg/mL (E. coli K-12; 250 γ/ml): 20.3 mm
- zone of inhibition at 500 µg/mL (E. coli K-12; 500 γ/ml): 21.9 mm
- zone of inhibition at 1000 µg/mL (E. coli K-12; 1000 γ/ml): 25 mm
- zone of inhibition at 2000 µg/mL (E. coli K-12; 2000 γ/ml): 26.7 mm
- zone of inhibition at 7.8 µg/mL ([2]; 7.8 γ/ml): 0 mm
- zone of inhibition at 15.6 µg/mL ([2]; 15.6 γ/ml): 0 mm
- zone of inhibition at 31.2 µg/mL ([2]; 31.2 γ/ml): 10 mm
- zone of inhibition at 62.5 µg/mL ([2]; 62.5 γ/ml): 12 mm
- zone of inhibition at 125 µg/mL ([2]; 125 γ/ml): 15.7 mm
- zone of inhibition at 250 µg/mL ([2]; 250 γ/ml): 18.1 mm
- zone of inhibition at 500 µg/mL ([2]; 500 γ/ml): 20 mm
- zone of inhibition at 1000 µg/mL ([2]; 1000 γ/ml): 22.2 mm
- zone of inhibition at 2000 µg/mL ([2]; 2000 γ/ml): 24.2 mm
- zone of inhibition at 500 µg/mL [3]: 0 mm
- zone of inhibition at 1000 µg/mL [3]: 12.5 mm
- zone of inhibition at 2000 µg/mL [3]: 18 mm
- zone of inhibition at 250 µg/mL (Klebsiella 6; 250 γ/ml): 0 mm
- zone of inhibition at 500 µg/mL (Klebsiella 6; 500 γ/ml): 11.1 mm
- zone of inhibition at 1000 µg/mL (Klebsiella 6; 1000 γ/ml): 14.1 mm
- zone of inhibition at 2000 µg/mL (Klebsiella 6; 2000 γ/ml, read-out: inhibitory zone diameter): 16.4 mm
- zone of inhibition at 62.5 µg/mL (Mycobacterium 607; 62.5 γ/ml): 0 mm
- zone of inhibition at 125 µg/mL (Mycobacterium 607; 125 γ/ml): 11 mm
- zone of inhibition at 250 µg/mL (Mycobacterium 607; 250 γ/ml): 16.2 mm
- zone of inhibition at 500 µg/mL (Mycobacterium 607; 500 γ/ml): 21.7 mm
- zone of inhibition at 1000 µg/mL (Mycobacterium 607; 1000 γ/ml): 28.3 mm
- zone of inhibition at 2000 µg/mL (Mycobacterium 607; 2000 γ/ml): 33.6 mm
- zone of inhibition at 2000 µg/mL (Pseudomonas 1007): 0 mm
- MIC [4]: 1.56 µg/mL (≈ 5.09 µM)
- MIC [5]: 3.13 µg/mL (≈ 10.2 µM)
- MIC [6]: 6.25 µg/mL (≈ 20.4 µM)
- MIC [7]: 6.25 µg/mL (≈ 20.4 µM)
- MIC [8]: 6.25 µg/mL (≈ 20.4 µM)
- MIC [9]: 1.56 µg/mL (≈ 5.09 µM)
- MIC [10]: 3.13 µg/mL (≈ 10.2 µM)
- MIC [11]: 0.78 µg/mL (≈ 2.55 µM)
- MIC (E. coli C73-1): 25 µg/mL (≈ 81.6 µM)
- MIC (E. coli C73-4): 25 µg/mL (≈ 81.6 µM)
- MIC (E. coli C73-12): 12.5 µg/mL (≈ 40.8 µM)
- MIC [12]: 50 µg/mL (≈ 163 µM)
- MIC [13]: 12.5 µg/mL (≈ 40.8 µM)
- MIC (Proteus morganii Kono): 12.5 µg/mL (≈ 40.8 µM)
- MIC (Proteus species C73-23): 25 µg/mL (≈ 81.6 µM)
- MIC (Proteus species C73-25): 6.25 µg/mL (≈ 20.4 µM)
- MIC (Proteus species C73-33): 100 µg/mL (≈ 326 µM)
- MIC (Proteus species C73-34): 25 µg/mL (≈ 81.6 µM)
- MIC [14]: 25 µg/mL (≈ 81.6 µM)
- MIC [15]: 50 µg/mL (≈ 163 µM)
- MIC [16]: 1.56 µg/mL (≈ 5.09 µM)
- MIC [17]: 25 µg/mL (≈ 81.6 µM)
- MIC [18]: 25 µg/mL (≈ 81.6 µM)
- antimicrobial activities relative to neamine (microorganisms indicated): superior to those of the parent compound neamine
- acute toxicity, survival (male ICR mice): all male ICR mice were survived
